We go through 22 molecules from patent publication US11312727B1, “Macrocyclic flu endonuclease inhibitors” (Janssen BioPharma, Inc., priority 2018, dated 2022).

As usually defined, the CC50 is the concentration at which the toxic effect on the cells reaches its halfway point. The term EC50 denotes the concentration needed to bring the measured effect to its halfway point.

One series in a line: in vitro. Particulars: human, CC50, uninfected A549 cells, CellTiter-Glo.
In series [1] the test system is Influenza strain A549 A/WSN/33 (H1N1). As to the kind of experiment: microbe, parasite or virus in culture. Type of series: cell-based. Particulars: Influenza A virus, A549, 20 h, A549 cells, influenza A/WSN/33 (H1N1), 20 hours incubation; read-out: A549_A(H1N1) EC50.

`O=C1c2c(O)c(=O)ccn2N2CN1C/C=C\COc1ccccc1[C@H]2c1ccccc1F` (single isomer, unassigned) [Compound 36B, (18*S,Z)-18-(2-fluorophenyl)-12-hydroxy-6,9-dihydro-18H-10,17-methanobenzo[b]pyrido[1,2-f][1]oxa[5,6,9]triazacyclotridecine-11,13-dione]: in “in vitro”, the CC50 is above 2000 nM. In addition, the EC50 in series [1] was determined as 815 nM.

Regarding `O=C1c2c(O)c(=O)ccn2N2CN1[C@H](C1CC1)/C=C/COc1c(ccc(F)c1F)[C@H]2c1ccccc1` (single isomer, unassigned) [Compound 152BB, (9*R,18*R,*E)-9-cyclopropyl-3,4-difluoro-12-hydroxy-18-phenyl-6,9-dihydro-18H-10,17-methanobenzo[b]pyrido[1,2-f][1]oxa[5,6,9]triazacyclotridecine-11,13-dione], the CC50 in the series “in vitro” is above 200 nM. For the same molecule, the EC50 in series [1] is 1.8 nM.

In turn, `O=C1c2c(O)c(=O)ccn2N2CN1CC/C=C\COc1cccc3c1[C@@H]2c1ccccc1CC3` (single isomer, unassigned) [Compound 28B] showed a CC50 in “in vitro” above 400 nM. For the same molecule, the EC50 in series [1] is 6 nM.

Consider `O=C1c2c(O)c(=O)ccn2N2CN1CC/C=C/COc1c(ccc(Cl)c1Cl)[C@@H]2c1ccccc1` (single isomer, unassigned) [Compound 111A, (2*S,*E)-33,34-dichloro-15-hydroxy-2-phenyl-12,13,14,16-tetrahydro-11H-4-oxa-1(1,3)-pyrido[2,1-f][1,2,4]triazina-3(1,2)-benzenacyclononaphan-6-ene-14,16-dione], for which the CC50 in “in vitro” was above 200 nM. Also, in series [1], the EC50 worked out at 4.3 nM.

Regarding `O=C1c2c(O)c(=O)ccn2N2CN1C1(/C=C/COc3c(F)cccc3[C@@H]2c2ccccc2)CC1` (single isomer, unassigned) [Compound 95A, (18′*S,E)-4′-fluoro-12′-hydroxy-18′-phenyl-6′H,18′H-spiro[cyclopropane-1,9′-[10,17]methanobenzo[b]pyrido[1,2-f][1]oxa[5,6,9]triazacyclotridecine]-11′,13′-dione], the CC50 in “in vitro” was above 1000 nM. Further, the EC50 in series [1] is above 500 nM.

In the series “in vitro”, `COc1ccccc1[C@@H]1c2cccc(F)c2OC/C=C\CN2CN1n1ccc(=O)c(O)c1C2=O` (single isomer, unassigned) [Compound 117A, (18*R,*Z)-4-fluoro-12-hydroxy-18-(2-methoxyphenyl)-6,9-dihydro-18H-10,17-methanobenzo[b]pyrido[1,2-f][1]oxa[5,6,9]triazacyclotridecine-11,13-dione] showed a CC50 above 200 nM. The EC50 in series [1] was 29 nM.

In “in vitro”, `C[C@H]1/C=C/COc2cccc3c2[C@@H](c2ccccc2SC3)N2CN1C(=O)c1c(O)c(=O)ccn12` (single isomer, unassigned) [Compound 138D, (9*S,17a*S,E)-12-hydroxy-9-methyl-2,6,9,17a-tetrahydro-3,4-(epiprop[1]en[1]yl[3]ylidene)-10,17-methanobenzo[6,7]thiepino[4,5-c]pyrido[1,2-f][1]oxa[5,6,9]triazacyclotridecine-11,13-dione] returned a half-maximal cytotoxic concentration (CC50) above 200 nM. The EC50 in series [1] was 0.9 nM.

Regarding `O=C1c2c(O)c(=O)ccn2N2CN1[C@@H]1C[C@@H]1CCOc1cccc3c1[C@@H]2c1ccccc1SC3` (stereo in doubt) [Compound 166A, cis-(11a*RS,12a*RS,13S,20a*R)-15-hydroxy-6,11,11a,12,12a,20a-hexahydro-10H-7,8-(epiprop[1]en[1]yl[3]ylidene)-13,20-methanobenzo[6,7]thiepino[4,5-c]cyclopropa[j]pyrido[1,2-f][1]oxa[5,6,9]triazacyclotridecine-14,16-dione], in the series “in vitro”, the CC50 is above 100 nM. In addition, the EC50 in series [1] is above 50 nM.

For `O=C1c2c(O)c(=O)ccn2N2CN1[C@H](C1CC1)/C=C/COc1c(ccc(F)c1F)[C@@H]2c1ccccc1` (single isomer, unassigned) [Compound 152AB, (9*R,18*S,*E)-9-cyclopropyl-3,4-difluoro-12-hydroxy-18-phenyl-6,9-dihydro-18H-10,17-methanobenzo[b]pyrido[1,2-f][1]oxa[5,6,9]triazacyclotridecine-11,13-dione], in the series “in vitro”, the CC50 is above 100 nM. Also, in series [1], the EC50 is above 50 nM.

In “in vitro”, `O=C1c2c(O)c(=O)ccn2N2CN1C/C=C\COc1ccc(F)cc1[C@H]2c1ccccc1` (single isomer, unassigned) [Compound 22A, (18*R,Z)-2-fluoro-12-hydroxy-18-phenyl-6,9-dihydro-18H-10,17-methanobenzo[b]pyrido[1,2-f][1]oxa[5,6,9]triazacyclotridecine-11,13-dione] returned a CC50 above 1000 nM. In addition, in series [1], the EC50 is 9540 nM.

Turning to `O=C1c2c(O)c(=O)ccn2N2CN1C/C=C\COc1cccc3c1[C@@H]2c1ccccc1SC3` [Compound 46A, (21R,Z)-16-hydroxy-6,10,13,21a-tetrahydro-7,8-(epiprop[1]en[1]yl[3]ylidene)-14,21-methanobenzo[6,7]thiepino[4,5-c]pyrido[1,2-f][1]oxa[5,6,9]triazacyclotridecine-15,17-dione], in the series “in vitro”, the CC50 is above 2000 nM. For the same molecule, in series [1], the EC50 came to 64 nM.

The molecule `O=C1c2c(O)c(=O)ccn2N2CN1C/C=C\CCc1ccccc1[C@H]2c1ccccc1` (single isomer, unassigned) [Compound 21A, (17*R,*Z)-4-hydroxy-16-phenyl-7,10,11,16-tetrahydro-6,17-methanobenzo[k]pyrido[1,2-b][1,2,5]triazacyclotridecine-3,5-dione] yielded a CC50 in “in vitro” above 1000 nM. The EC50 in series [1] was 5 nM.

With `CSc1ccccc1[C@@H]1c2cccc(F)c2OC/C=C\CN2CN1n1ccc(=O)c(O)c1C2=O` (single isomer, unassigned) [Compound 119B, (18*S,*Z)-4-fluoro-12-hydroxy-18-(2-(methylthio)phenyl)-6,9-dihydro-18H-10,17-methanobenzo[b]pyrido[1,2-f][1]oxa[5,6,9]triazacyclotridecine-11,13-dione], in “in vitro”, the CC50 was above 200 nM. In series [1], the EC50 is 22 nM.

In turn, `O=C1c2c(O)c(=O)ccn2N2CN1CC/C=C/COc1cccc3c1[C@H]2c1ccccc1SC3` (single isomer, unassigned) [Compound 37D, (1*S,13E)-7-hydroxy-16-oxa-23-thia-2,3,10-triazahexacyclo[15.12.1.12,10.03,8.021,30.024,29]hentriaconta-4,7,13,17,19,21(30),24(29),25,27-nonaene-6,9-dione] came in with a CC50 in the series “in vitro” above 200 nM. The EC50 in series [1] worked out at 1 nM.

Turning to `O=C1c2c(O)c(=O)ccn2N2CN1C/C=C\COc1cc(F)ccc1[C@H]2c1ccccn1` (single isomer, unassigned) [Compound 71B, (18*S,*Z)-3-fluoro-12-hydroxy-18-(pyridin-2-yl)-6,9-dihydro-18H-10,17-methanobenzo[b]pyrido[1,2-f][1]oxa[5,6,9]triazacyclotridecine-11,13-dione], the CC50 in the series “in vitro” is above 20000 nM. In series [1], the EC50 was 7690 nM.

For `C[C@H]1/C=C/COc2c(F)cccc2[C@@H](c2ccccc2)N2CN1C(=O)c1c(O)c(=O)ccn12` (single isomer, unassigned) [Compound 141AB, (9*S,18*R,E)-4-fluoro-12-hydroxy-9-methyl-18-phenyl-6,9-dihydro-18H-10,17-methanobenzo[b]pyrido[1,2-f][1]oxa[5,6,9]triazacyclotridecine-11,13-dione], in “in vitro”, the CC50 was above 50 nM. Moreover, the EC50 in series [1] was 2 nM.

In “in vitro”, `CC[C@@H]1/C=C\COc2cccc3c2[C@@H](c2ccccc2SC3)N2CN1C(=O)c1c(O)c(=O)ccn12` [Compound 92BB, (13R,21aS,Z)-13-ethyl-16-hydroxy-6,10,13,21a-tetrahydro-7,8-(epiprop[1]en[1]yl[3]ylidene)-14,21-methanobenzo[6,7]thiepino[4,5-c]pyrido[1,2-f][1]oxa[5,6,9]triazacyclotridecine-15,17-dione] showed a CC50 above 100 nM. Moreover, the EC50 in series [1] worked out at 1.5 nM.

For `O=C1c2c(O)c(=O)ccn2N2CN1C1(/C=C/COc3ccccc3[C@@H]2c2ccccc2)CC1` [Compound 79A, (18'S,E)-12′-hydroxy-18′-phenyl-6′H,18′H-spiro[cyclopropane-1,9′-[10,17]methanobenzo[b]pyrido[1,2-f][1]oxa[5,6,9]triazacyclotridecine]-11′,13′-dione], the CC50 in “in vitro” is above 1000 nM. Also, in series [1], the EC50 is above 500 nM.

For `O=C1c2c(O)c(=O)ccn2N2CN1C[C@H]1C[C@@H]1COc1c(ccc(F)c1F)[C@H]2c1ccccc1` (single isomer, unassigned) [Compound 139BA, (1a*S,8*R,17a*S)-4,5-difluoro-14-hydroxy-8-phenyl-1a,2,17,17a-tetrahydro-1H,8H-9,16-methanobenzo[b]cyclopropa[k]pyrido[1,2-f][1]oxa[5,6,9]triazacyclotridecine-13,15-dione], in “in vitro”, the CC50 is above 100 nM. Also, in series [1], the EC50 is 44.6 nM.

Take `O=C1c2c(O)c(=O)ccn2N2CN1C/C=C\COc1c(F)cccc1[C@@H]2c1ccccc1` (single isomer, unassigned) [Compound 61B, (18*S,Z)-4-fluoro-12-hydroxy-18-phenyl-6,9-dihydro-18H-10,17-methanobenzo[b]pyrido[1,2-f][1]oxa[5,6,9]triazacyclotridecine-11,13-dione]: the CC50 in the series “in vitro” is above 2000 nM. Also, the EC50 in series [1] turned out to be 155 nM.

In “in vitro”, `CC[C@@H]1/C=C/COc2ccccc2[C@H](c2ccccc2)N2CN1C(=O)c1c(O)c(=O)ccn12` [Compound 39AA, (9R,18S,E)-9-ethyl-12-hydroxy-18-phenyl-6,9-dihydro-18H-10,17-methanobenzo[b]pyrido[1,2-f][1]oxa[5,6,9]triazacyclotridecine-11,13-dione] came in with a CC50 above 2000 nM. The EC50 in series [1] was above 1000 nM.

The molecule `CSc1ccccc1[C@H]1c2cccc(F)c2OC/C=C\CN2CN1n1ccc(=O)c(O)c1C2=O` (single isomer, unassigned) [Compound 119A, (18*R,*Z)-4-fluoro-12-hydroxy-18-(2-(methylthio)phenyl)-6,9-dihydro-18H-10,17-methanobenzo[b]pyrido[1,2-f][1]oxa[5,6,9]triazacyclotridecine-11,13-dione] came in with a CC50 in the series “in vitro” above 200 nM. Besides, the EC50 in series [1] was above 100 nM.
